Results taken from PMC8534003, “The Chemokine-Based Peptide, CXCL9(74-103), Inhibits Angiogenesis by Blocking Heparan Sulfate Proteoglycan-Mediated Signaling of Multiple Endothelial Growth Factors” (Cancers, 2021).
Where no end group is shown, it is not given here. TAMRA = 5(6)-carboxytetramethylrhodamine

Columns and labels:
[1] = tested on: human microvascular endothelial cells (HMVECs); test: xCELLigence chemotaxis assay (HMVEC migration); type: cell-based; conditions: EGF 10 ng/mL, FGF-2 30 ng/mL or VEGF165 10 ng/mL in lower chamber
Protocol: To evaluate the effect of the CXCL9-derived peptides on growth factor-induced endothelial cell migration, the xCELLigence® real-time cell analyzer (RTCA DP) system (ACEA Biosciences, Inc.; San Diego, CA, USA) was used. First, 160 µL MCDB131 medium (Gibco) supplemented with 0.4% (v/v) FCS (control medium) or 160 µL control medium with 30 ng/mL FGF-2, 10 ng/mL VEGF165 or 10 ng/mL EGF were added to the lower chamber of a cell invasion/migration (CIM)-Plate (ACEA Biosciences, Inc.). After assembly of the lower and upper chamber, 50 µL of serum-free MCDB131 medium was added in the upper wells. Following equilibration of the plate at 37 °C for 1 h, HMVECs were added in the upper chamber at 4 × 10^4 cells in 100 µL/well. CXCL9(74-103) or CXCL9(86-103) was added together with the cells in the upper compartment at a concentration of 0.3 or 3 µM. The assembled CIM-Plate was left at room temperature for 30 min to allow the cells to settle onto the membrane. Finally, the plate was placed in the instrument at 37 °C to monitor cell migration for 15 h. Cell migration from one compartment to the other was recorded (one recording every minute) as changes in electrical impedance. These changes were converted into cell indices, as a measure of cell migration.

[2] = tested on: phospho-ERK1/2; test: Signal transduction assay, EGF-induced ERK phosphorylation in HMVECs (ELISA); type: cell-based, human; conditions: EGF 10 ng/mL, 15 min, compared to control (100%), n ≥ 3
Protocol: HMVECs and MECs were seeded in 6-well plates at 1.25 × 10^5 cells/well in their respective culture medium. Once the cell density reached 70–80% confluency, the cells were starved in serum-free medium overnight. Fifteen minutes prior to stimulation, cells were incubated with various concentrations of CXCL9(74-103) or CXCL9(86-103) in 0.5% (v/v) BSA in MCDB131 or DMEM medium (assay medium for HMVECs and MECs, respectively) at 37 °C. HMVECs and MECs were stimulated with assay medium alone or supplemented with 10 ng/mL EGF or 5 ng/mL murine VEGF165 at 37 °C for 15 or 5 min, respectively. Then, the cells were placed on ice, washed with ice-cold PBS and 90 µL of lysis buffer [1% (v/v) protease inhibitor cocktail, phosphatase inhibitor cocktail 2 and 3 (all Sigma-Aldrich) in 1 mM ethylenediaminetetraacetic acid (EDTA), 0.5% (v/v) Triton™ X-100, 5 mM NaF, 6 M urea in PBS] was added per well. […] The amount of phospho-ERK1/2 in the cell lysates was determined using an ERK1 (Thr202/Tyr204)/ERK2 (Thr185/Tyr187) ELISA duoset (R&D Systems) according to the manufacturer’s instructions. The amount of phosphorylated ERK was normalized to the total protein content in the samples measured by the Pierce™ bicinchoninic acid (BCA) protein assay kit (Thermo Fisher Scientific).

[3] = tested on: human microvascular endothelial cells (HMVECs); test: Endothelial cell proliferation assay (MTT or ATP lite); type: cell-based; conditions: EGF, VEGF165 5 ng/mL or FGF-2 3 ng/mL as single stimulus
Protocol: The ability of the CXCL9-derived peptides to inhibit growth factor-induced proliferation of endothelial cells was assessed. HMVECs were seeded at 5 × 10^3 cells/well in EBM™-2 medium containing 1% (v/v) FCS (proliferation medium). After settling of the cells, they were stimulated with EGF, VEGF165 (both 5 ng/mL) or FGF-2 (3 ng/mL) as a single stimulus or in combination with CXCL9(86-103) or CXCL9(74-103) at 0.3 or 3 µM in proliferation medium or left untreated. HMVECs were also treated with 0.3 or 3 µM of CXCL9(74-103) or 3 µM of CXCL9(86-103) alone to assess the effect of CXCL9-derived peptide treatment on spontaneous proliferation. After 3 to 4 days, a 3-(4,5-dimethylthiazol-2-yl)-2,5-diphenyl tetrazolium bromide (MTT) or ATP lite assay was performed. The ATP lite assay was performed according to the manufacturer’s instructions (Perkin Elmer, Waltham, MA). When MTT was used as substrate, the medium was replaced with 200 µL of MTT solution (RPMI without phenol red containing 0.4 g/L MTT) and the cells were incubated at 37 °C and 5% CO2 in the dark for 4 hours. Then, the MTT solution was discarded and the formed formazan crystals were dissolved in 200 µL acidic propanol [0.04 M HCl, 0.1% (v/v) NP-40 in isopropanol] under continuous shaking in the dark for 10 min. The optical densities were measured at 570 nm and 630 nm (reference wavelength).

[4] = tested on: cell surface HS on HMVECs; test: Cellular HS binding of TAMRA-labeled CXCL9(74-103), flow cytometry; design: species or system human; conditions: 1 representative of 3 experiments
Protocol: CXCL9(74-103) binding to cellular HS was assessed via flow cytometry. HMVECs were either left untreated or incubated with 0.75 U/mL heparinase II (Sigma-Aldrich) at 37 °C for 2 h. Cells were harvested and left at room temperature for 1 h to recuperate, they were then placed on ice and centrifuged. After centrifugation (300 g, 4 °C, 7 min) and resuspension in PBS, 1 × 10^5 cells per condition were stained with 3, 0.6 or 0.12 nM TAMRA-labeled CXCL9(74-103). To verify downregulation of HS expression, cells were stained with mouse anti-HS Ab (clone F58-10E4, Cat No 370255-S; Amsbio, Abingdon, UK) and R-PE goat anti-mouse IgM Ab (Cat No 115-116-075; Jackson ImmunoResearch, Westgrove, PA, USA). Flow cytometric analysis was performed using the BD LSRFortessa™ X-20 flow cytometer and FlowJo software (both BD Biosciences).

[5] = tested on: HMVEC spheroids; test: Spheroid sprouting assay; type: cell-based, human; conditions: FGF-2 10 ng/mL, 16 hours
Protocol: A 1:5 mixture of endothelial cells (4 × 10^4 cells/mL) and methylcellulose (Sigma-Aldrich, Saint Louis, MO, USA; 12 mg/mL in EBM™-2 basal medium) in EBM™-2 cell culture medium was prepared. Drops of 1 × 10^3 HMVECs were plated on a petri dish and allowed to form single spheroids in hanging droplets at 37 °C, 5% CO2 for 24 h. Spheroids were collected, sedimented by centrifugation and resuspended in a mixture of 24 mg/mL methylcellulose in basal EBM™-2, 1 mg/mL collagen type I (BD Biosciences, San Jose, CA, USA), 2.5 mg/mL NaHCO3 and 10 mM NaOH. The suspension was plated in a 96-well plate and the collagen was allowed to polymerize at 37 °C, 5% CO2 for 30 min. Spheroids were left untreated or stimulated with 0.3 or 3 µM of CXCL9(74-103) or 3 µM of CXCL9(86-103) for 15 min prior to addition of 10 ng/mL FGF-2 or 10 ng/mL EGF in EBM™-2 + 3% (v/v) FCS. In some experiments, HMVECs were pretreated with heparinase II (vide infra). After 16 hours, spheroid sprouting was assessed with an inverted Axiovert 200M microscope (Zeiss, Germany) through a 10× objective. The average number of sprouts was calculated and the average sprout length per spheroid was measured using Fiji software.
Sprouting experiments examining the dependency on HS binding for the inhibitory action of CXCL9(74-103) were performed as described above (vide supra). […]

[6] = tested on: FGF-2-induced angiogenesis, C57BL/6 mice; test: In vivo angiogenesis Matrigel plug assay; design: species or system mouse; conditions: 180 ng FGF-2 alone, day 7
Protocol: Six-to-eight-week-old female C57BL/6 mice were anesthetized with a mixture of 2.5 mg/mL xylazine (V.M.D, Inovet, Arendonk, Belgium) and 37.5 mg/mL ketamine (Dechra, Northwich, UK) in PBS by i.p. injection. A vertical dorsal incision was made and an ALZET osmotic pump (model 1007D, DURECT Corporation, Cupertine, CA, USA) filled with 400 µg/100 µL CXCL9(74-103) or 100 µL PBS was subcutaneously (s.c.) implanted. The incision was closed with a surgical suture. Growth factor-reduced Matrigel (Corning Matrigel Growth Factor (GFR) Basement Membrane Matrix, Phenol Red-Free, LDEV-Free; Corning Life Sciences, Amsterdam, The Netherlands) was s.c. injected in the dorsal flank forming a firm plug (600 µL/plug). The Matrigel was either injected as such (control plugs) or supplemented with 300 µg CXCL9(74-103) and/or 180 ng FGF-2. Seven days later, the mice were sacrificed. Thirty minutes before sacrifice, the mice were i.v. injected with 200 µL (25 mg/kg) FITC-labeled 2000 kDa dextran (Sigma-Aldrich) to quantify vessel formation in the Matrigel plugs. Blood was collected through cardiac puncture into heparinized tubes containing 20 µL heparin (5.000 IE/mL, Leo Pharma, Ballerup, Denmark). The blood was centrifuged at 200 g and 4 °C for 10 min, whereafter the supernatant was centrifuged at 3000 g and 4 °C for 10 min. The collected plasma was stored away from light at 4 °C until analysis. The Matrigel plugs were removed and enzymatically and mechanically digested in 1.2 mL dispase (Corning Life Sciences) using an incubation at 37 °C for 1.5 h and the gentleMACS™ Dissociator (Miltenyi Biotec, Bergisch Gladbach, Germany). The digested Matrigel plugs were filtered through a 70 µm cell strainer, washed with 1.5 mL FACS buffer [2% (v/v) FCS + 2 mM EDTA in PBS] and centrifuged at 300 g and 4 °C for 7 min. The supernatant (SN) was centrifuged again at 300 g and 4 °C for 7 min and the SN was retained away from light at 4 °C until analysis. The pellet was resuspended in 1 mL FACS buffer, the cells were counted and used for flow cytometry. The antibodies used to identify endothelial cells were anti-mouse CD45-APC (clone 30-F11, eBioscience, Thermo Fisher Scientific), anti-mouse CD146-PE (clone ME-9F1) and anti-mouse Pan-endothelial Cell Antigen-BV711 (clone MECA-32) antibodies (both BD Biosciences). Mice experiments were approved by the Ethical Committee of KU Leuven (project number P199/2018).

| Substance | enhancement of migration by growth factor alone [1] | phospho-ERK content [2] [%] | enhancement of proliferation by growth factor alone [3] | binding to untreated HMVECs ([4]; 3, 0.6 or 0.12 nM TAMRA-labeled peptide) | binding to heparinase II-treated HMVECs ([4]; heparinase II 0.75 U/mL, 37 °C, 2 h, 3, 0.6 or 0.12 nM) | sprouting in response to FGF-2 alone [5] | CD146+MECA-32+ cell population, FGF-2 compared to control [6] [fold] | fluorescence ratio, FGF-2 plug compared to control [6] | number of cells inside plug, FGF-2 compared to control [6] [fold] |
| --- | --- | --- | --- | --- | --- | --- | --- | --- | --- |
| EGF: human recombinant EGF (R&D Systems), stimulus | significant enhancement of endothelial cell migration | 247 | significant enhancement of proliferation |  |  |  |  |  |  |
| TAMRA-labeled CXCL9(74-103): CXCL9(74-103) fluorescently labeled at the NH2-terminus with 5(6)-carboxytetramethylrhodamine ({TAMRA}-KKKQKNGKKHQKKKVLKVRKSQRSRQKKTT; UniProt Q07325 96-125, looked up, fragment) |  |  |  | bound CXCL9(74-103) in a concentration-dependent manner | bound CXCL9(74-103) less efficiently compared to cells with intact HS |  |  |  |  |
| FGF-2: human recombinant FGF-2 (R&D Systems), stimulus | significant enhancement of endothelial cell migration |  | significant enhancement of proliferation |  |  | pronounced endothelial sprouting | ~3 | doubled the fluorescence ratio compared to the control | ~3 |
